Laboratory results from ChEMBL document CHEMBL6109066, “Synthesis, cytotoxic evaluation, and molecular docking of novel zerumbone oxime esters and azazerumbone derivatives” (Bioorg Med Chem Lett, 2025).
Values after ≈ are worked out from the molar mass of the structure shown.

Experiments:
Format in all cases: functional, cell-based
HepG2 = assay: Cytotoxicity against human HepG2 cells
A549 = assay: Cytotoxicity against human A549 cells
HL-60 = assay: Cytotoxicity against human HL-60 cells
AGS = assay: Cytotoxicity against human AGS cells

| Structure (SMILES) | IC50 (HepG2) [µg/mL] | IC50 (A549) [µg/mL] | IC50 (HL-60) [µg/mL] | IC50 (AGS) [µg/mL] |
| --- | --- | --- | --- | --- |
| C/C1=C\CC(C)(C)/C=C/C(=O)N/C(C)=C/CC1 | 27.4 (≈ 117 µM) | 56.9 (≈ 244 µM) | 9.84 (≈ 42.2 µM) | 39.6 (≈ 170 µM) |
| C\C1=C/CC/C(C=O)=C/CC(C)(C)/C=C/C1=N/O | 64.1 (≈ 259 µM) | 91.8 (≈ 371 µM) | 37.7 (≈ 152 µM) | 53.9 (≈ 218 µM) |
| C#CCN[C@@H]1CC/C(C)=C/CC(C)(C)/C=C/C(=O)[C@@H]1C | 6.52 (≈ 23.8 µM) | 32.2 (≈ 118 µM) | 9.59 (≈ 35.1 µM) | 11.5 (≈ 42 µM) |
| COc1ccc(C(=O)O/N=C2/C=C/C(C)(C)C/C=C(\C)CC/C=C/2C)cc1 | 1.42 (≈ 3.86 µM) | 1.52 (≈ 4.14 µM) | 1.43 (≈ 3.89 µM) | 1.93 (≈ 5.25 µM) |
| CC(=O)O/N=C1/C=C/C(C)(C)C/C=C(\C)CC/C=C/1C | 18.5 (≈ 67.3 µM) | 30.8 (≈ 112 µM) | 11 (≈ 39.9 µM) | 23.8 (≈ 86.3 µM) |
| C/C1=C\CC(C)(C)/C=C/C(=N/OC(=O)c2ccc(Br)cc2)C(/C)=C/CC1 | 12.2 (≈ 29.4 µM) | 40.8 (≈ 97.9 µM) | 15.4 (≈ 36.9 µM) | 27.3 (≈ 65.6 µM) |
| C/C1=C\CC(C)(C)/C=C/C(=N/OC(=O)[C@H](NC(=O)OC(C)(C)C)C(C)C)C(/C)=C/CC1 | 1.59 (≈ 3.68 µM) | 2.01 (≈ 4.65 µM) | 3.88 (≈ 8.97 µM) | 3.21 (≈ 7.42 µM) |
| C/C1=C\CC(C)(C)/C=C/C(=N/OC(=O)c2ccccc2)C(/C)=C/CC1 | 3.64 (≈ 10.8 µM) | 14.3 (≈ 42.3 µM) | 6.63 (≈ 19.6 µM) | 10.5 (≈ 31.3 µM) |
| COc1cc(C(=O)O/N=C2/C=C/C(C)(C)C/C=C(\C)CC/C=C/2C)ccc1OC(C)=O | 7.41 (≈ 17.4 µM) | 15.6 (≈ 36.8 µM) | 10.7 (≈ 25.2 µM) | 10 (≈ 23.5 µM) |
| C/C1=C\CC(C)(C)/C=C/C(=N/OC(=O)c2cccc([N+](=O)[O-])c2)C(/C)=C/CC1 | 30.4 (≈ 79.5 µM) | 58.9 (≈ 154 µM) | 29.8 (≈ 77.8 µM) | 41.8 (≈ 109 µM) |
| C/C1=C\CC(C)(C)/C=C/C(=N/OC(=O)c2cccc(Cl)c2)C(/C)=C/CC1 | 14.3 (≈ 38.4 µM) | 52.9 (≈ 142 µM) | 10.6 (≈ 28.5 µM) | 38.3 (≈ 103 µM) |
| CC(=O)Oc1ccc(C(=O)O/N=C2/C=C/C(C)(C)C/C=C(\C)CC/C=C/2C)cc1 | 5.87 (≈ 14.8 µM) | 10.9 (≈ 27.5 µM) | 3.55 (≈ 8.98 µM) | 9.37 (≈ 23.7 µM) |
| CC(=O)N1C(=O)/C=C/C(C)(C)C/C=C(\C)CC/C=C/1C | 32.9 (≈ 120 µM) | 44.1 (≈ 160 µM) | 4.5 (≈ 16.3 µM) | 9.02 (≈ 32.8 µM) |
| C/C1=C\CC(C)(C)/C=C/C(=N/OC(=O)c2ccc([N+](=O)[O-])cc2)C(/C)=C/CC1 | 4.61 (≈ 12.1 µM) | 9.28 (≈ 24.3 µM) | 9.88 (≈ 25.8 µM) | 6.66 (≈ 17.4 µM) |
| C/C1=C\CC(C)(C)/C=C/C(=N/O)C(/C)=C/CC1 | > 100 | > 100 | 45.5 (≈ 195 µM) | > 100 |
| C/C1=C\CC(C)(C)/C=C/C(=N/OC(=O)[C@H](NC(=O)OC(C)(C)C)C(C)(C)C)C(/C)=C/CC1 | 1.15 (≈ 2.57 µM) | 1.37 (≈ 3.07 µM) | 0.41 (≈ 0.918 µM) | 1.5 (≈ 3.36 µM) |
| C/C1=C\CC(C)(C)/C=C/C(=N/OC(=O)CCl)C(/C)=C/CC1 | 37.5 (≈ 121 µM) | 46.1 (≈ 149 µM) | 9.03 (≈ 29.1 µM) | 44.6 (≈ 144 µM) |
| C/C1=C\CC(C)(C)/C=C/C(=O)[C@H](C)[C@H](Nc2ccc(Cl)cc2)CC1 | 56.2 (≈ 163 µM) | > 100 | 53.7 (≈ 155 µM) | > 100 |
| C/C1=C\CC(C)(C)/C=C/C(=N/OC(=O)c2ccccc2O)C(/C)=C/CC1 | 4.2 (≈ 11.9 µM) | 12 (≈ 34 µM) | 3.99 (≈ 11.3 µM) | 9.04 (≈ 25.6 µM) |
| Cc1c2ccncc2c(C)c2c1[nH]c1ccccc12 [ELLIPTECINE] | 0.33 (≈ 1.34 µM) | 0.39 (≈ 1.58 µM) | 0.35 (≈ 1.42 µM) | 0.4 (≈ 1.62 µM) |
| C/C1=C\CC(C)(C)/C=C/C(=O)/C(C)=C/CC1 [ZERUMBONE] | 0.93 (≈ 4.26 µM) | 1.03 (≈ 4.72 µM) | 0.86 (≈ 3.94 µM) | 1.11 (≈ 5.08 µM) |
